Laboratory results published in ChEMBL document CHEMBL1201861, “Genomics of Drug Sensitity in Cancer screening data, Wellcome Trust Sanger Institute”.

How the values were obtained:
Test in all cases: cells
D-392MG = assay type: functional, cell-based, Homo sapiens; settings: Homo sapiens, D-392MG
DJM-1 = assay type: functional, cell-based, Homo sapiens; settings: Homo sapiens, DJM-1;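 note: growth inhibition of human DJM-1 cells, read out by a cell viability assay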
Description: SANGER: Inhibition of human DJM-1 cell growth in a cell viability assay.

EKVX = assay type: functional, cell-based, Homo sapiens; settings: Homo sapiens, EKVX;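 note: growth inhibition of human EKVX cells, read out with a cell viability assay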
Description: SANGER: Inhibition of human EKVX cell growth in a cell viability assay.

ES4 = assay type: functional, cell-based, Homo sapiens; settings: Homo sapiens, ES4;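 note: growth inhibition of human ES4 cells, read out by a cell viability assay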
Description: SANGER: Inhibition of human ES4 cell growth in a cell viability assay.

ES5 = assay type: functional, cell-based, Homo sapiens; settings: Homo sapiens, ES5;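 note: growth inhibition of human ES5 cells, read out by a cell viability assay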
Description: SANGER: Inhibition of human ES5 cell growth in a cell viability assay.

ES7 = assay type: functional, cell-based, Homo sapiens; settings: Homo sapiens, ES7;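 note: growth inhibition of cultured human ES7 cells, read out as cell viability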
Description: SANGER: Inhibition of human ES7 cell growth in a cell viability assay.

ETK-1 = assay type: functional, cell-based, Homo sapiens; settings: Homo sapiens, ETK-1;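 note: growth inhibition of human ETK-1 cells, read out with a cell viability assay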
Description: SANGER: Inhibition of human ETK-1 cell growth in a cell viability assay.

EW-11 = assay type: functional, cell-based, Homo sapiens; settings: Homo sapiens, EW-11;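 note: growth inhibition of human EW-11 cells, measured with a cell viability assay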
Description: SANGER: Inhibition of human EW-11 cell growth in a cell viability assay.

GAK = assay type: functional, cell-based, Homo sapiens; settings: Homo sapiens, GAK;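 note: cell growth inhibition read out by a cell viability assay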
Description: SANGER: Inhibition of human GAK cell growth in a cell viability assay.

HAL-01 = assay type: functional, cell-based, Homo sapiens; settings: Homo sapiens, HAL-01;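 note: growth inhibition of human HAL-01 cells, read out with a cell viability assay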
Description: SANGER: Inhibition of human HAL-01 cell growth in a cell viability assay.

HD-MY-Z = assay type: functional, cell-based, Homo sapiens; settings: Homo sapiens, HD-MY-Z;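 note: growth inhibition of HD-MY-Z cells, read out with a cell viability assay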
Description: SANGER: Inhibition of human HD-MY-Z cell growth in a cell viability assay.

HL-60 = assay type: functional, cell-based, Homo sapiens; settings: Homo sapiens, HL-60;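 note: growth inhibition of human HL-60 cells, read out with a cell viability assay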
Description: SANGER: Inhibition of human HL-60 cell growth in a cell viability assay.

IST-SL1 = assay type: functional, cell-based, Homo sapiens; settings: Homo sapiens, IST-SL1;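 note: growth inhibition of human IST-SL1 cells, read out with a cell viability assay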
Description: SANGER: Inhibition of human IST-SL1 cell growth in a cell viability assay.

L-363 = assay type: functional, cell-based, Homo sapiens; settings: Homo sapiens, L-363
Description: SANGER: Inhibition of human L-363 cell growth in a cell viability assay.

LB2241-RCC = assay type: functional, cell-based, Homo sapiens; settings: Homo sapiens, LB2241-RCC;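 note: cell viability assay measuring how strongly the cultured human renal carcinoma line is prevented from growing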
Description: SANGER: Inhibition of human LB2241-RCC cell growth in a cell viability assay.

LB771-HNC = assay type: functional, cell-based, Homo sapiens; settings: Homo sapiens, LB771-HNC;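 note: growth inhibition of LB771-HNC human cells, read out with a cell viability assay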
Description: SANGER: Inhibition of human LB771-HNC cell growth in a cell viability assay.

LB831-BLC = assay type: functional, cell-based, Homo sapiens; settings: Homo sapiens, LB831-BLC;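 note: growth inhibition of LB831-BLC cells, read out with a cell viability assay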
Description: SANGER: Inhibition of human LB831-BLC cell growth in a cell viability assay.

LS-1034 = assay type: functional, cell-based, Homo sapiens; settings: Homo sapiens, LS-1034
Description: SANGER: Inhibition of human LS-1034 cell growth in a cell viability assay.

MEG-01 = assay type: functional, cell-based, Homo sapiens; settings: Homo sapiens, MEG-01;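 note: growth inhibition of MEG-01 cells, read out by a cell viability assay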
Description: SANGER: Inhibition of human MEG-01 cell growth in a cell viability assay.

MFM-223 = assay type: functional, cell-based, Homo sapiens; settings: Homo sapiens, MFM-223
Description: SANGER: Inhibition of human MFM-223 cell growth in a cell viability assay.

MHH-PREB-1 = assay type: functional, cell-based, Homo sapiens; settings: Homo sapiens, MHH-PREB-1;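 note: cell viability assay measuring inhibition of proliferation of human MHH-PREB-1 cells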
Description: SANGER: Inhibition of human MHH-PREB-1 cell growth in a cell viability assay.

MOLT-16 = assay type: functional, cell-based, Homo sapiens; settings: Homo sapiens, MOLT-16;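 note: growth inhibition of human MOLT-16 cells, read out with a cell viability assay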
Description: SANGER: Inhibition of human MOLT-16 cell growth in a cell viability assay.

MOLT-4 = assay type: functional, cell-based, Homo sapiens; settings: Homo sapiens, MOLT-4;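 note: growth inhibition of MOLT-4 cells, determined with a cell viability readout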
Description: SANGER: Inhibition of human MOLT-4 cell growth in a cell viability assay.

MZ7-mel = assay type: functional, cell-based, Homo sapiens; settings: Homo sapiens, MZ7-mel;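 note: growth inhibition of human MZ7-mel cells, measured by a cell viability assay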
Description: SANGER: Inhibition of human MZ7-mel cell growth in a cell viability assay.

Mo = assay type: functional, cell-based, Homo sapiens; settings: Homo sapiens, Mo
Description: SANGER: Inhibition of human Mo-T cell growth in a cell viability assay.

NB12 = assay type: functional, cell-based, Homo sapiens; settings: Homo sapiens, NB12;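 note: growth inhibition of human NB12 cells, read out by a cell viability assay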
Description: SANGER: Inhibition of human NB12 cell growth in a cell viability assay.

NB6 = assay type: functional, cell-based, Homo sapiens; settings: Homo sapiens, NB6
Description: SANGER: Inhibition of human NB6 cell growth in a cell viability assay.

NB69 = assay type: functional, cell-based, Homo sapiens; settings: Homo sapiens, NB69;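 note: growth inhibition of NB69 cells, determined by a cell viability assay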
Description: SANGER: Inhibition of human NB69 cell growth in a cell viability assay.

NCI-H1838 = assay type: functional, cell-based, Homo sapiens; settings: Homo sapiens, NCI-H1838;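 note: growth inhibition of NCI-H1838 cells, determined with a cell viability readout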
Description: SANGER: Inhibition of human NCI-H1838 cell growth in a cell viability assay.

NCI-H446 = assay type: functional, cell-based, Homo sapiens; settings: Homo sapiens, NCI-H446;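 note: growth inhibition of NCI-H446 cells determined by a cell viability assay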
Description: SANGER: Inhibition of human NCI-H446 cell growth in a cell viability assay.

NKM-1 = assay type: functional, cell-based, Homo sapiens; settings: Homo sapiens, NKM-1;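 note: growth inhibition of NKM-1 cells, read out with a cell viability assay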
Description: SANGER: Inhibition of human NKM-1 cell growth in a cell viability assay.

NOS-1 = assay type: functional, cell-based, Homo sapiens; settings: Homo sapiens, NOS-1;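 note: growth inhibition of the human NOS-1 cell line, read out with a cell viability assay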
Description: SANGER: Inhibition of human NOS-1 cell growth in a cell viability assay.

P30-OHK = assay type: functional, cell-based, Homo sapiens; settings: Homo sapiens, P30-OHK;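 note: growth inhibition of the P30-OHK cell line, read out with a cell viability assay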
Description: SANGER: Inhibition of human P30-OHK cell growth in a cell viability assay.

RCC10RGB = assay type: functional, cell-based, Homo sapiens; settings: Homo sapiens, RCC10RGB;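 note: growth inhibition of human RCC10RGB cells, read out by a cell viability assay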
Description: SANGER: Inhibition of human RCC10RGB cell growth in a cell viability assay.

SCC-15 = assay type: functional, cell-based, Homo sapiens; settings: Homo sapiens, SCC-15;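 note: growth inhibition of SCC-15 cells, read out with a cell viability assay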
Description: SANGER: Inhibition of human SCC-15 cell growth in a cell viability assay.

SF-268 = assay type: functional, cell-based, Homo sapiens; settings: Homo sapiens, SF-268;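 note: growth inhibition of SF-268 cells determined with a cell viability assay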
Description: SANGER: Inhibition of human SF268 cell growth in a cell viability assay.

SH-4 = assay type: functional, cell-based, Homo sapiens; settings: Homo sapiens, SH-4;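 note: growth inhibition of SH-4 cells, read out with a cell viability assay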
Description: SANGER: Inhibition of human SH-4 cell growth in a cell viability assay.

SNB-75 = assay type: functional, cell-based, Homo sapiens; settings: Homo sapiens, SNB-75;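 note: cell viability assay measuring growth inhibition of human SNB-75 cells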
Description: SANGER: Inhibition of human SNB75 cell growth in a cell viability assay.

SW872 = assay type: functional, cell-based, Homo sapiens; settings: Homo sapiens, SW872;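 note: growth inhibition of SW872 cells, read out by a viability assay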
Description: SANGER: Inhibition of human SW872 cell growth in a cell viability assay.

SW 962 = assay type: functional, cell-based, Homo sapiens; settings: Homo sapiens, SW 962;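 note: growth inhibition of human SW962 cells, read out by a cell viability assay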
Description: SANGER: Inhibition of human SW962 cell growth in a cell viability assay.

SW982 = assay type: functional, cell-based, Homo sapiens; settings: Homo sapiens, SW982;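 note: growth inhibition of SW982 cells, read out with a cell viability assay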
Description: SANGER: Inhibition of human SW982 cell growth in a cell viability assay.

697 = assay type: functional, cell-based, Homo sapiens; settings: Homo sapiens
Description: SANGER: Inhibition of human 697 cell growth in a cell viability assay.

8-MG-BA = assay type: functional, cell-based, Homo sapiens; settings: Homo sapiens, 8-MG-BA;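 note: growth inhibition of 8-MG-BA cells, read out with a cell viability assay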
Description: SANGER: Inhibition of human 8-MG-BA cell growth in a cell viability assay.

A4-Fuk = assay type: functional, cell-based, Homo sapiens; settings: Homo sapiens, A4-Fuk;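 note: growth inhibition of A4-Fuk cells, read out by a cell viability assay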
Description: SANGER: Inhibition of human A4-Fuk cell growth in a cell viability assay.

BV-173 = assay type: functional, cell-based, Homo sapiens; settings: Homo sapiens, BV-173
Description: SANGER: Inhibition of human BV-173 cell growth in a cell viability assay.

TE-5 = assay type: functional, cell-based, Homo sapiens; settings: Homo sapiens, TE-5;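 note: inhibition of cell growth, read out by a cell viability assay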
Description: SANGER: Inhibition of human TE-5 cell growth in a cell viability assay.

TE-8 = assay type: functional, cell-based, Homo sapiens; settings: Homo sapiens, TE-8;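 note: growth inhibition of TE-8 cells, measured with a cell viability readout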
Description: SANGER: Inhibition of human TE-8 cell growth in a cell viability assay.

TGBC24TKB = assay type: functional, cell-based, Homo sapiens; settings: Homo sapiens, TGBC24TKB;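 note: growth inhibition of human TGBC24TKB cells, read out with a cell viability assay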
Description: SANGER: Inhibition of human TGBC24TKB cell growth in a cell viability assay.

U-87 MG = assay type: functional, cell-based, Homo sapiens, U-87MG ATCC; settings: Homo sapiens, U-87 MG;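 note: growth inhibition of the cells measured with a viability assay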
Description: SANGER: Inhibition of human U-87-MG cell growth in a cell viability assay.

SMILES: CC1(C)CNc2cc(NC(=O)c3cccnc3NCc3ccncc3)ccc21 [MOTESANIB]
- IC50 (D-392MG): > 2000 nM
- IC50 (DJM-1): > 2000 nM
- IC50 (EKVX): > 2000 nM
- IC50 (ES4): > 2000 nM
- IC50 (ES5): > 2000 nM
- IC50 (ES7): > 2000 nM
- IC50 (ETK-1): > 2000 nM
- IC50 (EW-11): > 2000 nM
- IC50 (GAK): > 2000 nM
- IC50 (HAL-01): > 2000 nM
- IC50 (HD-MY-Z): > 2000 nM
- IC50 (HL-60): > 2000 nM
- IC50 (IST-SL1): > 2000 nM
- IC50 (L-363): > 2000 nM
- IC50 (LB2241-RCC): > 2000 nM
- IC50 (LB771-HNC): > 2000 nM
- IC50 (LB831-BLC): > 2000 nM
- IC50 (LS-1034): > 2000 nM
- IC50 (MEG-01): > 2000 nM
- IC50 (MFM-223): > 2000 nM
- IC50 (MHH-PREB-1): > 2000 nM
- IC50 (MOLT-16): > 2000 nM
- IC50 (MOLT-4): > 2000 nM
- IC50 (MZ7-mel): > 2000 nM
- IC50 (Mo): > 2000 nM
- IC50 (NB12): > 2000 nM
- IC50 (NB6): > 2000 nM
- IC50 (NB69): > 2000 nM
- IC50 (NCI-H1838): > 2000 nM
- IC50 (NCI-H446): > 2000 nM
- IC50 (NKM-1): > 2000 nM
- IC50 (NOS-1): > 2000 nM
- IC50 (P30-OHK): > 2000 nM
- IC50 (RCC10RGB): > 2000 nM
- IC50 (SCC-15): > 2000 nM
- IC50 (SF-268): > 2000 nM
- IC50 (SH-4): > 2000 nM
- IC50 (SNB-75): > 2000 nM
- IC50 (SW872): > 2000 nM
- IC50 (SW 962): > 2000 nM
- IC50 (SW982): > 2000 nM
- IC50 697: > 2000 nM
- IC50 (8-MG-BA): > 2000 nM
- IC50 (A4-Fuk): > 2000 nM
- IC50 (BV-173): > 2000 nM
- IC50 (TE-5): > 2000 nM
- IC50 (TE-8): > 2000 nM
- IC50 (TGBC24TKB): > 2000 nM
- IC50 (U-87 MG): > 2000 nM

SMILES: Cn1cnc2c(F)c(Nc3ccc(Br)cc3Cl)c(C(=O)NOCCO)cc21 [SELUMETINIB]
- IC50 (D-392MG): > 4000 nM
- IC50 (DJM-1): > 4000 nM
- IC50 (EKVX): > 4000 nM
- IC50 (ES4): > 4000 nM
- IC50 (ES5): > 4000 nM
- IC50 (ES7): > 4000 nM
- IC50 (ETK-1): > 4000 nM
- IC50 (EW-11): > 4000 nM
- IC50 (GAK): 1900 nM
- IC50 (HAL-01): 1700 nM
- IC50 (HD-MY-Z): > 4000 nM
- IC50 (HL-60): 24.6 nM
- IC50 (IST-SL1): > 4000 nM
- IC50 (L-363): > 4000 nM
- IC50 (LB2241-RCC): 790 nM
- IC50 (LB771-HNC): > 4000 nM
- IC50 (LB831-BLC): > 4000 nM
- IC50 (LS-1034): > 4000 nM
- IC50 (MEG-01): 1630 nM
- IC50 (MFM-223): > 4000 nM
- IC50 (MHH-PREB-1): > 4000 nM
- IC50 (MOLT-16): > 4000 nM
- IC50 (MOLT-4): > 4000 nM
- IC50 (MZ7-mel): > 4000 nM
- IC50 (Mo): > 4000 nM
- IC50 (NB12): > 4000 nM
- IC50 (NB6): > 4000 nM
- IC50 (NB69): 1050 nM
- IC50 (NCI-H446): > 4000 nM
- IC50 (NKM-1): 386 nM
- IC50 (NOS-1): > 4000 nM
- IC50 (P30-OHK): > 4000 nM
- IC50 (RCC10RGB): > 4000 nM
- IC50 (SCC-15): > 4000 nM
- IC50 (SF-268): > 4000 nM
- IC50 (SH-4): 166 nM
- IC50 (SNB-75): > 4000 nM
- IC50 (SW872): 1270 nM
- IC50 (SW 962): > 4000 nM
- IC50 (SW982): > 4000 nM
- IC50 697: > 4000 nM
- IC50 (8-MG-BA): > 4000 nM
- IC50 (A4-Fuk): > 4000 nM
- IC50 (BV-173): 748 nM
- IC50 (TE-5): > 4000 nM
- IC50 (TE-8): > 4000 nM
- IC50 (TGBC24TKB): > 4000 nM
- IC50 (U-87 MG): > 4000 nM

SMILES: CC(C)CCN1c2nc(Nc3cc(F)c(O)c(F)c3)ncc2N(C)C(=O)C1C (stereo unspecified)
- IC50 (D-392MG): > 5000 nM
- IC50 (DJM-1): 4800 nM
- IC50 (EKVX): > 5000 nM
- IC50 (ES4): 1850 nM
- IC50 (ES5): 2240 nM
- IC50 (ES7): 916 nM
- IC50 (ETK-1): 4360 nM
- IC50 (EW-11): 3410 nM
- IC50 (GAK): > 5000 nM
- IC50 (HAL-01): > 5000 nM
- IC50 (HD-MY-Z): 3370 nM
- IC50 (HL-60): 884 nM
- IC50 (IST-SL1): 846 nM
- IC50 (L-363): > 5000 nM
- IC50 (LB2241-RCC): 3690 nM
- IC50 (LB771-HNC): > 5000 nM
- IC50 (LB831-BLC): 3540 nM
- IC50 (LS-1034): > 5000 nM
- IC50 (MEG-01): > 5000 nM
- IC50 (MFM-223): > 5000 nM
- IC50 (MHH-PREB-1): 4400 nM
- IC50 (MOLT-16): > 5000 nM
- IC50 (MOLT-4): 3390 nM
- IC50 (MZ7-mel): > 5000 nM
- IC50 (Mo): > 5000 nM
- IC50 (NB12): > 5000 nM
- IC50 (NB6): 2460 nM
- IC50 (NB69): > 5000 nM
- IC50 (NCI-H1838): > 5000 nM
- IC50 (NCI-H446): 3680 nM
- IC50 (NKM-1): > 5000 nM
- IC50 (NOS-1): > 5000 nM
- IC50 (P30-OHK): > 5000 nM
- IC50 (RCC10RGB): > 5000 nM
- IC50 (SCC-15): > 5000 nM
- IC50 (SF-268): 2870 nM
- IC50 (SH-4): > 5000 nM
- IC50 (SNB-75): > 5000 nM
- IC50 (SW872): > 5000 nM
- IC50 (SW 962): > 5000 nM
- IC50 (SW982): > 5000 nM
- IC50 697: 2020 nM
- IC50 (8-MG-BA): 2230 nM
- IC50 (A4-Fuk): > 5000 nM
- IC50 (BV-173): 1990 nM
- IC50 (TE-5): > 5000 nM
- IC50 (TE-8): 3190 nM
- IC50 (TGBC24TKB): > 5000 nM
- IC50 (U-87 MG): > 5000 nM
